Assay results taken from patent US5789434A, “Derivatives of substituted 4-biarylbutyric acid as matrix metalloprotease inhibitors” (priority 1995, dated 1998).
Non-standard residues stand in square brackets, D forms with d. Residues, ends and D or L forms follow the SMILES beside them. *: point of attachment. Dnp = O=[N+]([O-])c1ccc(*)c([N+](=O)[O-])c1; Mca = COc1ccc2c(CC(=O)*)cc(=O)oc2c1; Dap = NC[C@H](N)C(=O)O

What was measured:
Assay type in all cases: biochemical
[1] = molecular target: T1, MMP-9 (Homo sapiens, UniProt P14780); assay: Thiopeptilide MMP-9 Inhibition Assay; settings: for IC50: pH 6.5, x (n) = average of n determinations, read-out: MMP-9: Thiopep. IC50; for inhibition at 5 µM: read-out: MMP-9: Thiopep. % inhibition
T1 construct: from tissue; host or cells: human polymorphonuclear leukocytes (PMN) from whole blood (New York Blood Center), PMA-stimulated supernatant

[2] = molecular target: T2, MMP-3 (Homo sapiens, UniProt P08254); assay: Primary Thiopeptilide MMP-3 Inhibition Assay; settings: for IC50: pH 6.5, 13 nM stromelysin, x (n) = average of n determinations, read-out: MMP-3 Thiopep. IC50; for inhibition at 5 µM: read-out: MMP-3 Thiopep. % inhibition
T2 construct: Truncated Prostromelysin-257 was expressed in a soluble form in E.coli; made in house; host or cells: E. coli

[3] = system: MMP; assay: MMP inhibitory activity, comparison in words
[4] = molecular target: T1, MMP-9; assay: Automated MMP Profiling Assay, MMP-9 fluorogenic; settings: for IC50: 96-well automated, P218
[5] = molecular target: T2, MMP-3; assay: Automated MMP Profiling Assay, MMP-3 fluorogenic; settings: for IC50: 96-well automated, P218
Excerpt: This assay with each invention compound was run with the three enzymes MMP-3, MMP-9 and MMP-2 in parallel as adapted for a 96-well microtitre plate using a Hamilton A® workstation.

[6] = molecular target: T3, MMP-2 (Homo sapiens, UniProt P08253); assay: Secondary P218 Quenched fluorescence Assay for MMP-2 Inhibition; settings: for IC50: 0.2 nM enzyme, x (n) = average of n determinations, read-out: MMP-2 Fluorogenic IC50
T3 sequence (P08253 110-660): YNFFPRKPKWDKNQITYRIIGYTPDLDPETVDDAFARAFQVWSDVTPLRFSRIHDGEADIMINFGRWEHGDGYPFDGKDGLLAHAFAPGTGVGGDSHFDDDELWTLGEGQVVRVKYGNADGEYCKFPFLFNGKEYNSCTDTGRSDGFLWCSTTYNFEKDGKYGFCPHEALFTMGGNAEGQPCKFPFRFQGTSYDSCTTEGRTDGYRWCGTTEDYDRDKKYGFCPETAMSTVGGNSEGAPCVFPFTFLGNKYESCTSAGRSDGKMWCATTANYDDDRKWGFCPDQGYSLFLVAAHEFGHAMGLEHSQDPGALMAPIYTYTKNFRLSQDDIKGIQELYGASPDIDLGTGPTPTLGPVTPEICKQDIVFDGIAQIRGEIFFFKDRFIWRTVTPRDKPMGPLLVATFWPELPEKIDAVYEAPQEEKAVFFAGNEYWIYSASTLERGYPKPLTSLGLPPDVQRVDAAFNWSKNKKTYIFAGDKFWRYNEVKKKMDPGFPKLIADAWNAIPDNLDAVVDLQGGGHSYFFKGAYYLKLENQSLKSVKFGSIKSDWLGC

[7] = molecular target: T2, MMP-3; assay: Secondary P218 Quenched fluorescence Assay for MMP-3 Inhibition; settings: for IC50: P218 substrate, pH 6.5, 25° C., x (n) = average of n determinations, read-out: MMP-3 Fluorogenic IC50
Protocol: Truncated Prostromelysin-257 was expressed in a soluble form in E.coli as described by Marcy et al., Biochemistry, 30, 6476-6483, 1991. Soluble truncated prostromelysin was purified by a modification of the monoclonal antibody affinity chromatography method described by Housley et al., J. Biol. Chem., 268, 4481-87, 1993.
The assay is run continuously in a 3.0 ml cuvette using a Perkin-Elmer LS 50 B Spectrofluorimeter at 25° C. in a final volume of 2.0 mls. P218 substrate (10 mM) in 100% DMSO is diluted to a final concentration of 2.0 micromolar (μM) into assay buffer: 50 mM MES, pH 6.5 containing 150 mM NaCl, 10 mM CaCl2, 0.005% Brij-35, and 1%(v/v) DMSO. Test compounds(10 mM) in DMSO are diluted in assay buffer at an initial concentration of 10 to 100 micromolar. […] The reaction is initiated by the addition of recombinant stromelysin (MMP-3) at a final concentration of 1.0 nM. Upon peptide cleavage, the fluorescent MCA group was detected using an excitation wavelength of 328 nanometers and an emission wavelength of 393 nanometers.

[8] = molecular target: T3, MMP-2; assay: Automated MMP Profiling Assay, MMP-2 fluorogenic; settings: 96-well automated, P218; read-out: MMP-2 Fluorogenic IC50 (profiling)

T1 sequence (P14780 107-707 limits assumed): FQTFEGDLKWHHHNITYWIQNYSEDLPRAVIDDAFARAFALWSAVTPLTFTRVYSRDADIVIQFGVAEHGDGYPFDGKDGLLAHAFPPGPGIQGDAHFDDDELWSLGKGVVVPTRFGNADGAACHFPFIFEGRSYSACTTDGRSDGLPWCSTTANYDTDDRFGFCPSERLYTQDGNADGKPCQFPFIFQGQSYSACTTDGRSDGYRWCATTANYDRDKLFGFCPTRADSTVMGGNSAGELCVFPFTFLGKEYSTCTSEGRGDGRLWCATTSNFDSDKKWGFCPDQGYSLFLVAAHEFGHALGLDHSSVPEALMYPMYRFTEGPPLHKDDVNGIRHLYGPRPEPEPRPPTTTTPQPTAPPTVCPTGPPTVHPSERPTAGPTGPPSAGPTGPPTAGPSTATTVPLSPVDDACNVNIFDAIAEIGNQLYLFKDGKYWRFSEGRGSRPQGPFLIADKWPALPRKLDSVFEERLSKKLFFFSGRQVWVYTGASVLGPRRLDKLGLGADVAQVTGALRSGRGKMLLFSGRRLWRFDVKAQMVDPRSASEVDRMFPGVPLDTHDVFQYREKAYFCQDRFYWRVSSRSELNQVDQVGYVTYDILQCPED
T2 sequence (P08254 100-274 limits assumed): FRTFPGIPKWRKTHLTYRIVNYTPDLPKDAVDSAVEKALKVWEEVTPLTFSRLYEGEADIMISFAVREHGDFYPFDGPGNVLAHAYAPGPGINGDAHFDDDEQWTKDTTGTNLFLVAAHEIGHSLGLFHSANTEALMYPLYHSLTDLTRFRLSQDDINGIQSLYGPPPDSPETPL

IC50 [2] [nM]	Compound	IC50 [1] [nM]	IC50 [7] [nM]	IC50 [8] [nM]	further results
437	O=C(O)[C@@H]1CC[C@H]1C(=O)c1ccc(-c2ccc(Cl)cc2)cc1 (relative stereo) [Example 291, Cyclobutanecarboxylic acid, 2-[(4'-chloro[1,1'-biphenyl]-4-yl)carbonyl]-, trans-]	2700			MMP inhibitory activity (in words) [3]: much more active
379	CC(C)CC(CC(=O)O)C(=O)c1ccc(-c2ccc(Cl)cc2)cc1 (single isomer, unassigned) [Example 4, 5-methyl-3-[oxo-(4'-chloro-4-biphenyl)methyl]hexanoic acid]	2700	480		
486	CC(C)CC(CC(=O)c1ccc(-c2ccc(Cl)cc2)cc1)C(=O)O (stereo not drawn) [Example 1, [1,1'-Biphenyl]-4-butanoic acid, 4'-chloro-α-(2-methylpropyl)-γ-oxo-]	1000	805		
	CC(C)CC(CC(=O)c1ccc(-c2ccccc2)cc1)C(=O)O (stereo not drawn) [Example 13, [1,1'-Biphenyl]-4-butanoic acid, α-(2-methylpropyl)-γ-oxo-]				inhibition at 5 µM [1]: 3%; inhibition at 5 µM [2]: 27%; MMP inhibitory activity (in words) [3]: low potency
440	CC(C)CC(CC(=O)c1ccc(-c2ccc(Br)cc2)cc1)C(=O)O (stereo not drawn) [Example 14, [1,1'-Biphenyl]-4-butanoic acid, 4'-bromo-α-(2-methylpropyl)-γ-oxo-]	1200	570		
620	CCCCCC(CC(=O)c1ccc(-c2ccc(Cl)cc2)cc1)C(=O)O (stereo not drawn) [Example 26, [1,1'-Biphenyl]-4-butanoic acid, 4'-chloro-γ-oxo-α-pentyl-]	4300	240		
118	CC(C)CC(CC(=O)c1ccc(-c2ccc(I)cc2)cc1)C(=O)O (stereo not drawn) [Example 41, [1,1'-Biphenyl]-4-butanoic acid, 4'-iodo-α-(2-methylpropyl)-γ-oxo-]	500	260		
	CCOC(=O)/C=C/c1ccc(-c2ccc(C(=O)CC(CCCc3ccccc3)C(=O)O)cc2)cc1 (stereo not drawn) [Example 42, [1,1'-Biphenyl]-4-butanoic acid, 4'-(3-ethoxy-3-oxo-1-propenyl)-γ-oxo-α-(3-phenylproyl)-, (E)-]		48		IC50 ([6]; P218 substrate): 21 nM
	CCOC(=O)CCc1ccc(-c2ccc(CCC(CCCc3ccccc3)C(=O)O)cc2)cc1 (stereo not drawn) [Example 44, [1,1'-Biphenyl]-4-butanoic acid, 4'-(3-ethoxy-3-oxopropyl)-α-(3-phenylpropyl)-]		1970		IC50 ([6]; P218 substrate): 1150 nM
	O=C(O)CCc1ccc(-c2ccc(CCC(CCCc3ccccc3)C(=O)O)cc2)cc1 (stereo not drawn) [Example 45, [1,1'-Biphenyl]-4-butanoic acid, 4'-(2-carboxyethyl)-α-(3-phenylpropyl)-]				inhibition at 5 µM ([6]; at 5 μM, read-out: MMP-2 Fluorogenic % inhibition): 56%; inhibition at 5 µM ([7]; at 5 μM, read-out: MMP-3 Fluorogenic % inhibition): 43%
	O=C(C[C@@H](CCCc1ccccc1)C(=O)O)c1ccc(-c2ccc(Cl)cc2)cc1 [Example 115, 4-[4-(4-chlorophenyl)phenyl]-4-oxo-2R-(3-phenylpropyl)butanoic acid]			1750	IC50 [4]: > 1250 nM; IC50 [5]: > 1250 nM; inhibition at 5 µM [1]: 31%; inhibition at 5 µM [2]: 39%
310	O=C(CC(Cc1ccccc1)C(=O)O)c1ccc(-c2ccc(Cl)cc2)cc1 (stereo not drawn) [Example 131, [1,1'-Biphenyl]-4-butanoic acid, 4'-chloro-γ-oxo-α-(phenylmethyl)-]		900		
	O=C(O)[C@@H]1[C@@H](Sc2ccccc2)CC[C@H]1C(=O)c1ccc(-c2ccc(Cl)cc2)cc1 [Example 297, (1R,2S,5R)-trans-5-[4-(4-chlorophenyl)phenylcarbonyl]-trans-2-phenylthiocyclopentanecarboxylic acid]	640		2070	IC50 [4]: 2370 nM; IC50 [5]: 5750 nM
	CCCCCCOc1ccc(-c2ccc(C(=O)C3CCC=C3C(=O)O)cc2)cc1 (stereo not drawn) [Example 443, 1-Cyclopentene-1-carboxylic acid, 5-[[4'-(hexyloxy)[1,1'-biphenyl]-4-yl]carbonyl]-]			4610	inhibition at 5 µM ([4]; at 5 μM): 16%; inhibition at 5 µM ([5]; at 5 μM): 20%
	O=C(CC(CSc1ccccc1)C(=O)O)c1ccc(-c2ccc(O)cc2)cc1 (stereo not drawn) [Example 444, [1,1'-Biphenyl]-4-butanoic acid, 4'-hydroxy-γ-oxo-α-[(phenylthio)methyl]-]			43	IC50 [4]: < 5000 nM; IC50 [5]: < 5000 nM
	COc1ccc2c(CC(=O)N3CCC[C@H]3C(=O)N[C@@H](CCCCN)C(=O)N3CCC[C@H]3C(=O)N[C@@H](CC(C)C)C(=O)N[C@@H](C)C(=O)N[C@@H](CC(C)C)C(=O)N[C@@H](CNc3ccc([N+](=O)[O-])cc3[N+](=O)[O-])C(=O)N[C@@H](C)C(=O)N[C@@H](CCCNC(=N)N)C(N)=O)cc(=O)oc2c1 [Example P218] (Mca-PKPLAL[Dap](Dnp)AR-NH2)				turnover number of MMP-2 ([6]; P218 substrate): 400,000

Compound	IC50 [2] [nM]	IC50 [1] [nM]	IC50 [7] [nM]	IC50 [8] [nM]	further results
O=C(O)[C@@H]1[C@@H](C(=O)c2ccc(-c3ccc(Cl)cc3)cc2)CC[C@H]1Sc1ccccc1 (relative stereo) [Example 294, trans-5-[4-(4-chlorophenyl)phenylcarbonyl]-trans-^2-phenylthiocyclopentanecarboxylic acid]	47	56	14	11	IC50 [4]: 176 nM; IC50 [5]: 58 nM; IC50 ([6]; P218 substrate): 4 nM
CC(C)(C)C(=O)SCC(CC(=O)c1ccc(-c2ccc(Cl)cc2)cc1)C(=O)O (single isomer, unassigned) [Example 194, [1,1'-Biphenyl]-4-butanoic acid, 4'-chloro-α-[[(2,2-dimethyl-1-oxopropyl)thio]methyl]-γ-oxo-]	115	750	62		
CCCCCOc1ccc(-c2ccc(C(=O)CC(CCCc3ccccc3)C(=O)O)cc2)cc1 (stereo not drawn) [Example 85, 4-[4-(4-pentyloxyphenyl)phenyl]-4-oxo-2-(3-phenylpropyl)butanoic acid]	37			32	IC50 [4]: 767 nM; IC50 [5]: 80 nM; inhibition at 5 µM [1]: 44%
O=C(CC(CCCc1ccccc1)C(=O)O)c1ccc(-c2ccc(Cl)cc2)cc1 (stereo not drawn) [Example 114, 4-[4-(4-chlorophenyl)phenyl]-4-oxo-2-(3-phenylpropyl)butanoic acid]	244	285	120	68	IC50 [4]: 439 nM; IC50 [5]: 246 nM; IC50 ([6]; P218 substrate): 25 nM
CC(C)(C)C(=O)SCC(CC(=O)c1ccc(-c2ccc(Cl)cc2)cc1)C(=O)O (stereo not drawn) [Example 193, [1,1'-Biphenyl]-4-butanoic acid, 4'-chloro-α-[[(2,2-dimethyl-1-oxopropyl)thio]methyl]-γ-oxo-]	153	2450	150		IC50 ([6]; P218 substrate): 40 nM
COC(=O)c1ccccc1SCC(CC(=O)c1ccc(-c2ccc(Cl)cc2)cc1)C(=O)O (stereo not drawn) [Example 244, [1,1'-Biphenyl]-4-butanoic acid, 4'-chloro-α-[[[2-(methoxycarbonyl)phenyl]thio]methyl]-γ-oxo-]	79	600	27		IC50 ([6]; P218 substrate): 7 nM
